{"source": "patent US12311060B2", "about": "(priority 2017, dated 2025)", "origin": "cited, not measured here", "settings": "rodent models", "data": [{"smiles": "C/C=C1\\C2C=C(C)C[C@]1(N)c1ccc(=O)[nH]c1C2", "note": "(stereo in doubt) [huperzine A, (1R,9S,13E)-1-amino-13-ethylidene-11-methyl-6-azatricyclo[7.3.1.02,7]trideca-2(7),3,10-trien-5-one]", "values": [{"measurement": "efficacy as an anticonvulsant in words", "value": "very high efficacy"}]}]}
